Counter-ions that a name gives are not always drawn.

The subject of assay [1] is recombinant NL-Rluc virus. Description: Inhibition of HIV replication: susceptibility of recombinant NL-Rluc virus to compounds. In kind it is cell-based. The following applies: Human immunodeficiency virus 1, read-out: Activity (EC50, 50% effective concentration).
The target in assay [2] is HIV integrase (Human immunodeficiency virus type 1 group M subtype B, UniProt P12497). Briefly: HIV-integrase inhibition activity: inhibition of [3H]BMS-641493 binding to enzyme-SPA bead complexes. The following applies: competition with [3H]BMS-641493, enzyme-SPA bead complexes; read-out: Activity (Ki toward integrase). The text has this:
HIV-Integrase Inhibition Activity.
Radiolabeled integrase inhibitor, BMS-641493 was used as a known reference ligand to determine the binding constants towards the integrase enzyme of the compounds described in this invention using a method similar to that described in; Dicker et al. J. Biological Chem. 2007, 282, 31186-31196; Dicker et al. J. Biol. Chem. 2008, 283, 23599-23609 and Dicker et al. Biochemistry 2008, 47, 13481-13488. BMS-641493 is a known active-site binding inhibitor as it can be competed […] for [3H]BMS-641493 were determined from fitting data to a saturation binding curve using Graphpad Prism, V4.01. The Ki measurement toward integrase was made by measuring the inhibition of binding of [3H]BMS-641493 to enzyme-SPA bead complexes in the presence of serial dilutions of the test compounds. The Ki value was determined from the [3H]BMS-641493 Kd and the inhibition binding curve using Graphpad Prism, V4.03.

Consider `NC12CCC(CC1)Cn1c2nc(-c2ncc(Cc3ccc(F)cc3)[nH]2)c(O)c1=O` [Example 1, 10-Amino-2-[4-[(4-fluorophenyl)methyl]-1H-imidazol-2-yl]-7,8,9,10-tetrahydro-3-hydroxy-7,10-ethanopyrimido[1,2-a]azepin-4(6H)-one], for which the EC50 in assay [1] stood at 21 nM. With `CN(C)C(=O)C(=O)NC12CCC(CC1)Cn1c2nc(-c2ncc(Cc3ccc(F)cc3)[nH]2)c(O)c1=O` [Example 2, N′-(2-(4-(4-Fluorobenzyl)-1H-imidazol-2-yl)-3-hydroxy-4-oxo-6,7,8,9-tetrahydro-7,10-ethanopyrimido[1,2-a]azepin-10(4H)-yl)-N,N-dimethylethanediamide], the EC50 in assay [1] came out at 5 nM. Moreover, the Ki in assay [2] was 21 nM.

For the molecule `O=C(NC12CCC(CC1)Cn1c2nc(-c2ncc(Cc3ccc(F)cc3)[nH]2)c(O)c1=O)C(=O)N1CCCC1` [Example 3, N-(2-(4-(4-Fluorobenzyl)-1H-imidazol-2-yl)-3-hydroxy-4-oxo-6,7,8,9-tetrahydro-7,10-ethanopyrimido[1,2-a]azepin-10(4H)-yl)-2-oxo-2-(pyrrolidin-1-yl)acetamide], the EC50 in assay [1] is 18 nM. For the same molecule, the Ki in assay [2] stood at 122 nM. The matching figures for `Cc1cc(C(=O)NC23CCC(CC2)Cn2c3nc(-c3ncc(Cc4ccc(F)cc4)[nH]3)c(O)c2=O)no1` [Example 4, N-(2-(4-(4-Fluorobenzyl)-1H-imidazol-2-yl)-3-hydroxy-4-oxo-6,7,8,9-tetrahydro-7,10-ethanopyrimido[1,2-a]azepin-10(4H)-yl)-5-methyl-1,2-oxazole-3-carboxamide]: 8 nM and 21 nM. The matching figures for `NC12CCC(CC1)Cn1c2nc(-c2ncc(Cc3ccc(F)cc3)s2)c(O)c1=O` [Example 5]: 60 nM and 3880 nM. The corresponding values for `CN(C)C(=O)C(=O)NC12CCC(CC1)Cn1c2nc(-c2ncc(Cc3ccc(F)cc3)s2)c(O)c1=O` [Example 6, N′-(2-(5-(4-Fluorobenzyl)-1,3-thiazol-2-yl)-3-hydroxy-4-oxo-6,7,8,9-tetrahydro-7,10-ethanopyrimido[1,2-a]azepin-10(4H)-yl)-N,N-dimethylethanediamide] are 1 nM and 400 nM. Regarding `CN(C)C(=O)C(=O)NC12CCC(CC1)Cn1c2nc(-c2nnc(Cc3ccc(F)cc3)o2)c(O)c1=O` [Example 7, N′-(2-(5-(4-Fluorobenzyl)-1,3,4-oxadiazol-2-yl)-3-hydroxy-4-oxo-6,7,8,9-tetrahydro-7,10-ethanopyrimido[1,2-a]azepin-10(4H)-yl)-N,N-dimethylethanediamide], in assay [1], the EC50 amounted to 2 nM. Also, the Ki in assay [2] is 222 nM. The matching figures for `CN(C)C(=O)C(=O)NC12CCC(CC1)Cn1c2nc(-c2ncc(Cc3ccc(F)cc3)o2)c(O)c1=O` [Example 8, N′-(4-(5-(4-Fluorobenzyl)-1,3-oxazol-2-yl)-3-hydroxy-4-oxo-6,7,8,9-tetrahydro-7,10-ethanopyrimido[1,2-a]azepin-10(4H)-yl)-N,N-dimethylethanediamide]: 0.4 nM and 115 nM.

On to `CN(C)C(=O)C(=O)NC12CCC(CC1)Cn1c2nc(-c2ncn(Cc3ccc(F)cc3)n2)c(O)c1=O` [Example 9, N′-[2-[1-[(4-Fluorophenyl)methyl]-1H-1,2,4-triazol-3-yl]-6,7,8,9-tetrahydro-3-hydroxy-4-oxo-7,10-ethanopyrimido[1,2-a]azepin-10(4H)-yl]-N,N-dimethylethanediamide], for which the Ki in assay [2] stood at 1070 nM. In the case of `Cc1cc(Cc2cnc(-c3nc4n(c(=O)c3O)CC3CCC4(NC(=O)C(=O)N(C)C)CC3)[nH]2)ccc1F` [Example 10, N′-[2-[4-[(4-Fluoro-3-methylphenyl)methyl]-1H-imidazol-2-yl]-6,7,8,9-tetrahydro-3-hydroxy-4-oxo-7,10-ethanopyrimido[1,2-a]azepin-10(4H)-yl]-N,N-dimethyl-ethanediamide trifluoroacetate salt], the EC50 in assay [1] was 6 nM. The Ki in assay [2] stood at 9 nM.

In the case of `Cc1cc(Cc2cnc(-c3nc4n(c(=O)c3O)CC3CCC4(NC(=O)c4cccnc4)CC3)[nH]2)ccc1F` [Example 11, N-[2-[4-[(4-Fluoro-3-methylphenyl)methyl]-1H-imidazol-2-yl]-6,7,8,9-tetrahydro-3-hydroxy-4-oxo-7,10-ethanopyrimido[1,2-a]azepin-10(4H)-yl]-3-pyridinecarboxamide trifluoroacetate salt], the EC50 in assay [1] worked out at 24 nM. In addition, in assay [2], the Ki came to 19 nM. The corresponding values for `Cc1cc(Cc2cnc(-c3nc4n(c(=O)c3O)CC3CCC4(NC(=O)c4cccnn4)CC3)[nH]2)ccc1F` [Example 12, N-[2-[4-[(4-Fluoro-3-methylphenyl)methyl]-1H-imidazol-2-yl]-6,7,8,9-tetrahydro-3-hydroxy-4-oxo-7,10-ethanopyrimido[1,2-a]azepin-10(4H)-yl]-3-pyridazinecarboxamide trifluoroacetate salt] are 8 nM and 13 nM. As to `CN(C)C(=O)C(=O)N(C)C12CCC(CC1)Cn1c2nc(-c2ncc(Cc3ccc(F)cc3)[nH]2)c(O)c1=O` [Example 13, N-[2-[4-[(4-Fluorophenyl)methyl]-1H-imidazol-2-yl]-6,7,8,9-tetrahydro-3-hydroxy-4-oxo-7,10-ethanopyrimido[1,2-a]azepin-10(4H)-yl]-N,N′,N′-trimethyl-ethanediamide trifluoroacetate salt], in assay [1], the EC50 came out at 2 nM. Moreover, the Ki in assay [2] amounted to 13 nM.

`Cc1cc(Cc2c[nH]c(-c3nc4n(c(=O)c3O)CC3CCC4(NC(=O)C(C)(C)n4cncn4)CC3)n2)ccc1F` [Example 14, N-[2-[4-[(4-Fluoro-3-methylphenyl)methyl]-1H-imidazol-2-yl]-6,7,8,9-tetrahydro-3-hydroxy-4-oxo-7,10-ethanopyrimido[1,2-a]azepin-10(4H)-yl]-alpha,alpha-dimethyl-1H-1,2,4-triazole-1-acetamide trifluoroacetate salt]: the EC50 in assay [1] was 7 nM. Besides, the Ki in assay [2] was found to be 41 nM.

With `CC(=O)N(C)C1(C(=O)NC23CCC(CC2)Cn2c3nc(-c3ncc(Cc4ccc(F)c(C)c4)[nH]3)c(O)c2=O)CC1` [Example 15, 1-(Acetylmethylamino)-N-[2-[4-[(4-fluoro-3-methylphenyl)methyl]-1H-imidazol-2-yl]-6,7,8,9-tetrahydro-3-hydroxy-4-oxo-7,10-ethanopyrimido[1,2-a]azepin-10(4H)-yl]-cyclopropanecarboxamide trifluoroacetate salt], the EC50 in assay [1] stood at 53 nM. Moreover, the Ki in assay [2] came out at 57 nM. The corresponding values for `CN(C)C(=O)C(=O)NC12CCC(CC1)Cn1c2nc(-c2nnc(Cc3ccc(F)cc3)s2)c(O)c1=O` [Example 16, N′-[2-[5-[(4-Fluorophenyl)methyl]-1,3,4-thiadiazol-2-yl]-6,7,8,9-tetrahydro-3-hydroxy-4-oxo-7,10-ethanopyrimido[1,2-a]azepin-10(4H)-yl]-N,N-dimethylethanediamide] are 21 nM and 1470 nM. In the case of `Cc1cc(Cc2c[nH]c(-c3nc4n(c(=O)c3O)CC3CCC4(N(C)C(=O)C(=O)N(C)C)CC3)n2)ccc1F` [Example 17, N-[2-[4-[(4-Fluoro-3-methylphenyl)methyl]-1H-imidazol-2-yl]-6,7,8,9-tetrahydro-3-hydroxy-4-oxo-7,10-ethanopyrimido[1,2-a]azepin-10(4H)-yl]-N,N′,N′-trimethyl-ethanediamide trifluoroacetate salt], the EC50 in assay [1] was 5 nM. In addition, the Ki in assay [2] was 10 nM.

Turning to `Cc1cc(Cc2cnc(-c3nc4n(c(=O)c3O)CC3CCC4(NC(=O)c4ccn(C)n4)CC3)[nH]2)ccc1F` [Example 18, N-[2-[4-[(4-Fluoro-3-methylphenyl)methyl]-1H-imidazol-2-yl]-6,7,8,9-tetrahydro-3-hydroxy-4-oxo-7,10-ethanopyrimido[1,2-a]azepin-10(4H)-yl]-1-methyl-1H-pyrazole-3-carboxamide], the EC50 in assay [1] was 5 nM. Further, in assay [2], the Ki amounted to 16 nM.

In general, Ki refers to a measure of affinity in units of concentration, obtained from inhibition or displacement.

These data come from patent publication US8846659B2 (priority 2010, dated 2014).
